Data published in PMC10544810 (Food & Function, 2023).

Assays:
LC-MS [1] = assay type: in vivo, human; details: for concentrations detected in plasma: individual volunteers, ESI Fig. S4; for plasma concentration (mean ± SD): fasted baseline plasma, 90 volunteers
LC-MS [2] = assay type: in vivo, human; details: given as x : 1; plasma versus CSF concentrations
[3] = cited from earlier work

Compound | plasma : CSF ratio (LC-MS [2]) | plasma concentration (mean ± SD) (LC-MS [1]) [µM] | other results
O=c1ccc2ccc(O)c(O)c2o1 [7,8-Dihydroxycoumarin] | 5 | – | concentrations detected in plasma (LC-MS [1]): below 1 μM
O=C(O)c1cccc(O)c1 [3-Hydroxybenzoic acid] | – | – | CSF concentration reported by a previous study [3]: 58.5 nM
O=C(O)CNC(=O)c1ccccc1 [hippuric acid] | – | 387 ± 243 | –
Cn1c(=O)[nH]c(=O)c2[nH]cnc21 [3-Methylxanthine] | – | 5.3 ± 3.8 | –
Cn1c(=O)c2[nH]cnc2n(C)c1=O [1,3-Dimethylxanthine, reference compound] | 620 | – | –

The next lines start with results.

plasma : CSF ratio (LC-MS [2]) | plasma concentration (mean ± SD) (LC-MS [1]) [µM] | Compound | other results
– | 179 ± 118 | Cn1c(=O)c2c(ncn2C)n(C)c1=O [1,3,7-Trimethylxanthine, reference compound] | –
– | 0.0053 ± 0.0041 | CCOC(=O)c1cc(O)c(O)c(O)c1 [3,4,5-trihydroxybenzene ethyl ester] | –
24 | – | Oc1cc(O)c2c(c1)O[C@H](c1ccc(O)c(O)c1)[C@H](O)C2 [(−)-Epicatechin] | concentrations detected in plasma (LC-MS [1]): below 1 μM
